In ChEMBL document CHEMBL1201862, “PubChem BioAssay data set” (2004):
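All cell lines were grown in 96-well plates and treated with compound for 48 hours. GI50: concentration for 50% inhibition of growth.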 Active and inactive are the calls of the source. Rule as the data show it: active = GI50 up to about 1.1 µM and inactive = higher.

What was measured:
Test in all cases: NCI-60 cell line screen, 48 h
NCI-H460 = tested on: NCI-H460
LOX IMVI = tested on: LOX IMVI
SK-MEL-5 = tested on: SK-MEL-5
HCT-15 = tested on: HCT-15
SK-OV-3 = tested on: SK-OV-3
IGROV-1 = tested on: IGROV-1
NCI-H226 = tested on: NCI-H226
UACC-62 = tested on: UACC-62
UO-31 = tested on: UO-31
M14 = tested on: M14
U-251 = tested on: U-251
OVCAR-3 = tested on: OVCAR-3
SNB-75 = tested on: SNB-75
SF-268 = tested on: SF-268
SF-539 = tested on: SF-539
MOLT-4 = tested on: MOLT-4
TK-10 = tested on: TK-10
HT-29 = tested on: HT-29
OVCAR-8 = tested on: OVCAR-8
NCI-H23 = tested on: NCI-H23

## CCOC(=O)c1csc(NC(=O)CN(C)C)n1
NCI-H460
  GI50: > 100 µM (inactive)
LOX IMVI
  GI50: > 100 µM (inactive)
SK-MEL-5
  GI50: > 100 µM (inactive)
HCT-15
  GI50: > 100 µM
SK-OV-3
  GI50: > 100 µM (inactive)
IGROV-1
  GI50: > 100 µM (inactive)
NCI-H226
  GI50: > 100 µM (inactive)
UACC-62
  GI50: > 100 µM (inactive)
UO-31
  GI50: > 100 µM (inactive)
M14
  GI50: > 100 µM (inactive)
U-251
  GI50: > 100 µM (inactive)
OVCAR-3
  GI50: > 100 µM (inactive)
SNB-75
  GI50: > 100 µM (inactive)
SF-268
  GI50: > 100 µM (inactive)
SF-539
  GI50: > 100 µM (inactive)
MOLT-4
  GI50: > 100 µM (inactive)
TK-10
  GI50: > 100 µM (inactive)
HT-29
  GI50: > 100 µM (inactive)
OVCAR-8
  GI50: > 100 µM (inactive)
NCI-H23
  GI50: > 100 µM (inactive)

## O=c1c2ccccc2[nH]c2cc(O)cc(O)c12
NCI-H460
  GI50: 32.8 µM (inactive)
LOX IMVI
  GI50: 32.1 µM (inactive)
SK-MEL-5
  GI50: 19.1 µM (inactive)
HCT-15
  GI50: 55.6 µM
SK-OV-3
  GI50: 85.5 µM (inactive)
IGROV-1
  GI50: < 0.01 µM (active)
NCI-H226
  GI50: 27.2 µM (inactive)
UACC-62
  GI50: > 100 µM (inactive)
UO-31
  GI50: 21 µM (inactive)
M14
  GI50: 91 µM (inactive)
U-251
  GI50: 79.3 µM (inactive)
OVCAR-3
  GI50: 53.1 µM (inactive)
SNB-75
  GI50: 47.9 µM (inactive)
SF-268
  GI50: 93.8 µM (inactive)
SF-539
  GI50: 41.5 µM (inactive)
MOLT-4
  GI50: 34.2 µM (inactive)
TK-10
  GI50: > 100 µM (inactive)
HT-29
  GI50: 40.2 µM (inactive)
OVCAR-8
  GI50: 30.6 µM (inactive)
NCI-H23
  GI50: 22.9 µM (inactive)

## CCOc1ccc(C(C)c2cc3c(cc2OC)OCO3)cc1 (stereo not given)
NCI-H460
  GI50: 0.34 µM (active)
LOX IMVI
  GI50: 0.259 µM (active)
SK-MEL-5
  GI50: 0.269 µM (active)
HCT-15
  GI50: 0.299 µM
SK-OV-3
  GI50: 0.32 µM (active)
IGROV-1
  GI50: 2.75 µM (inactive)
NCI-H226
  GI50: 0.207 µM (active)
UACC-62
  GI50: 0.376 µM (active)
UO-31
  GI50: 0.491 µM (active)
M14
  GI50: 0.361 µM (active)
U-251
  GI50: 0.38 µM (active)
OVCAR-3
  GI50: 0.221 µM (active)
SNB-75
  GI50: 0.277 µM (active)
SF-268
  GI50: 1.05 µM (active)
SF-539
  GI50: 0.271 µM (active)
MOLT-4
  GI50: 0.396 µM (active)
TK-10
  GI50: 0.353 µM (active)
HT-29
  GI50: 0.237 µM (active)
OVCAR-8
  GI50: 0.424 µM (active)
NCI-H23
  GI50: 0.267 µM (active)
